# Assay results as given in patent US20210308102A1 (priority 2018, published 2021).
# Columns and labels:
# Conditions in all cases: human, in vivo
# Presbyopic subjects [1] = system: Presbyopic subjects
# Presbyopic subjects [2] = system: Presbyopic subjects; remark: listed apart in the source
# Presbyopic subjects [3] = system: Presbyopic subjects; remark: listed apart in the source
smiles,measurement,setting,value
"CN(CCCCCCCCCCN(C)C(=O)Oc1cccc([N+](C)(C)C)c1)C(=O)Oc1cccc([N+](C)(C)C)c1 [compound 3, Demecarium bromide]",duration of eye discomfort and conjunctival congestion,Presbyopic subjects [1],2 to 3 days
same,ocular tolerance,Presbyopic subjects [1],Half of the subjects began to suffer from eye discomfort and conjunctival congestion after several hours
same,share of the subjects with no eye discomfort,Presbyopic subjects [1],half
"CNC(=O)Oc1ccc2c(c1)[C@]1(C)CCN(C)[C@@H]1N2C [compound 2, physostigmine]","effect on miosis, 0.25% eye drops compared with 1.5% eye drops",Presbyopic subjects [2],more than 1.5% compound 2 eye drops
same,time at which efficacy reached the highest level,Presbyopic subjects [2],2 h
same,time at which efficacy was still present,Presbyopic subjects [2],≥ 6 h
same,"improvement of distance corrected near visual acuity, 0.25% eye drops compared with 1.5% eye drops",Presbyopic subjects [3],more than 1.5% compound 2 eye drops
same,duration of eye twitching,Presbyopic subjects [1],15 min
same,duration of eyelid and eyeball twitching,Presbyopic subjects [1],15 min
same,duration of headache,Presbyopic subjects [1],1 to 2 h
same,duration of slightly inflexible eye mobility,Presbyopic subjects [1],3 to 4 h
same,onset of eye twitching,Presbyopic subjects [1],15 min
same,onset of eyelid and eyeball twitching,Presbyopic subjects [1],15 min
same,time until eye irritation disappeared,Presbyopic subjects [1],10 min
same,upper eyelid and eyeball adherence and mobility,Presbyopic subjects [1],"The upper eyelid and the eyeball were adhered tightly, and the mobility of the upper eyelid and eyeball was slightly weakened"
"CN(C)C(=O)Oc1cccc([N+](C)(C)C)c1 [compound 1, neostigmine]",share of the subjects with no tolerance problems,Presbyopic subjects [1],One third
same,time until symptoms gradually alleviated,Presbyopic subjects [1],30 min
